Measurements published in patent publication US9060511B2, “Compositions of dibromomalanomide and their use as biocides” (Rohm and Haas Company, priority 2010, dated 2015).

Tests used:
[1] = test system: consortium of bacteria: mixture of Pseudomonas aeruginosa, Klebsiella pneumoniae, Staphylococcus aureus, and Bacillus subtilis; experiment: Growth inhibition assay (microtiter plate-based synergy assay); type: cell-based; conditions: for I90 (concentration required for at least 90% inhibition of growth): Example 2; for I90 (concentration required for at least 90% inhibition of growth) / I90 (concentration required to inhibit at least 90% of bacterial growth when used alone): active alone, 37° C., 24 hr; for % Inhibition of Growth: Example 3
Description: (§1) The results provided in the Examples are generated using a growth inhibition assay. Details of each assay are provided below.
(§2) Growth Inhibition Assay. The growth inhibition assay used in the Examples measures inhibition of growth (or lack thereof) of a microbial consortium Inhibition of growth can be the result of killing of the cells (so no growth occurs), killing of a significant portion of the populations of cells so that regrowth requires a prolonged time, or inhibition of growth without killing (stasis). Regardless of the mechanism of action, the impact of a biocide (or combination of biocides) can be measured over time on the basis of an increase in the size of the community.
(§3) The assay measures the efficacy of one or more biocides at preventing growth of a consortium of bacteria in a dilute mineral salts medium. The medium contains (in mg/l) the following components: FeCl3.6H2O (1); CaCl2.2H2O (10); MgSO4.7H2O (22.5); (NH4)2SO4 (40); KH2PO4 (10); K2HPO4 (25.5); Yeast Extract (10); and glucose (100). After all components are added to deionized water, the pH of the medium is adjusted to 7.5. Following filter sterilization, aliquots are dispensed in 100 μl quantities to sterile microtiter plate wells. Dilutions of 2,2-dibromomalonamide (“DBMAL”) and/or “Biocide B” are then added to the microtiter plate. After preparing the combinations of actives as illustrated below, each well is inoculated with 100 μl of a cell suspension containing ca. 1×10^6 cells per milliliter of a mixture of Pseudomonas aeruginosa, Klebsiella pneumoniae, Staphylococcus aureus, and Bacillus subtilis. The final total volume of medium in each well is […]. […] The resulting matrix allows testing of eight concentrations of each active and 64 combinations of actives in the ratios (of actives).
(§4) Controls (not shown) contain the medium with no biocide added.
(§5) Immediately after the microtiter plates are prepared, the optical density (OD) readings for each well is measured at 580 nm and the plates are then incubated at 37° C. for 24 hr. After the incubation period, the plates are gently agitated before OD580 values are collected. The OD580 values at T0 are subtracted from T24 values to determine the total amount of growth (or lack thereof) that occurs. These values are used to calculate the percent inhibition of growth caused by the presence of each biocide and each of the 64 combinations. A 90% inhibition of growth (I90) value is used as a threshold for calculating synergy index (SI) values with the following equation: Synergy Index=MDBMAL/CDBMAL+MB/CB
(§6) where • CDBMAL: Concentration of DBMAL required to inhibit at least 90% of bacterial growth when used alone • CB: Concentration of biocide (B) required to inhibit at least 90% of bacterial growth when used alone. • MDBMAL: Concentration of DBMAL required to inhibit at least 90% of bacterial growth when used in combination with biocide (B). • MB: Concentration of biocide (B) required to inhibit at least 90% of bacterial growth when used in combination with DBMAL The SI values are interpreted as follows: • SI<1: Synergistic combination • SI=1: Additive combination • SI>1: Antagonistic combination
(§7) In the Examples below, the amounts of biocides in the solution are measured in mg per liter of solution (mg/l). Since solution densities are approximately 1.00, the mg/1 measurement corresponds to weight and can be expressed as parts per million (ppm). Both units may therefore be used interchangeably in the Examples.

[2] = as above; type: cell-based; conditions: Example 3
Description: as §1, §2, §3, §4, §5, §6, §7

[Cu] [Cu, copper]
I90 (concentration required for at least 90% inhibition of growth) [1]: 0.78 mg/L

NC(=O)C(Br)(Br)C(N)=O [DBMAL, 2,2-dibromomalonamide]
I90 (concentration required to inhibit at least 90% of bacterial growth when used alone) ([1]; Example 1 Experiment 1): 12.5 mg/L
I90 (concentration required for at least 90% inhibition of growth) [1]: 12.5 mg/L
inhibition at 0.2 µg/mL ([2]; DBMAL Alone 0.20 mg/l): 2%
inhibition at 0.39 µg/mL ([2]; DBMAL Alone 0.39 mg/l): 0%
inhibition at 0.78 µg/mL ([2]; DBMAL Alone 0.78 mg/l): 4%
inhibition at 1.56 µg/mL ([2]; DBMAL Alone 1.56 mg/l): 9%
inhibition at 3.13 µg/mL ([2]; DBMAL Alone 3.13 mg/l): 21%
inhibition at 6.25 µg/mL ([2]; DBMAL Alone 6.25 mg/l): 29%
inhibition at 12.5 µg/mL ([2]; DBMAL Alone 12.50 mg/l): 100%
inhibition at 25 µg/mL ([2]; DBMAL Alone 25.00 mg/l): 100%

[Ag] [Ag, silver]
I90 (concentration required to inhibit at least 90% of bacterial growth when used alone) ([1]; Example 1 Experiment 1): 0.063 mg/L
I90 (concentration required to inhibit at least 90% of bacterial growth when used alone) ([1]; Example 1 subsequent experiment (Experiment 2)): 0.125 ppm

[Zn] [Zn, zinc, reference compound]
% Inhibition of Growth ([1]; Zn Alone 19.5 mg/l): 19%
% Inhibition of Growth ([1]; Zn Alone 39.1 mg/l): 12%
% Inhibition of Growth ([1]; Zn Alone 78.1 mg/l): 18%
% Inhibition of Growth ([1]; Zn Alone 156.3 mg/l): 23%
% Inhibition of Growth ([1]; Zn Alone 312.5 mg/l): 33%
% Inhibition of Growth ([1]; Zn Alone 625.0 mg/l): 74%
% Inhibition of Growth ([1]; Zn Alone 1250.0 mg/l): 91%
% Inhibition of Growth ([1]; Zn Alone 2500.0 mg/l): 92%
